From patent US20160038468A1 (priority 2013, published 2016)
≈ marks a conversion by molar mass, not a printed value. Read-outs that look alike come from different tables or passages of the source.

Columns and labels:
Mobiluncus all species = assay: Agar dilution MIC (CLSI), Mobiluncus all species; format: cell-based
Prevotella timonensis = assay: Agar dilution MIC (CLSI), Prevotella timonensis vaginal isolates; format: cell-based; settings: for MIC: read-out: Minimal Inhibitory Concentration (MIC)
Atopobium vaginae = assay: Agar dilution MIC (CLSI), Atopobium vaginae vaginal isolates; format: cell-based; settings: for Number of strains with indicated MIC: 62 samples
Peptoniphilus lacrimalis = assay: Agar dilution MIC (CLSI), Peptoniphilus lacrimalis vaginal isolates; format: cell-based; settings: for MIC: read-out: Minimal Inhibitory Concentration (MIC)
[1] = tested on: B. thetaiotaomicron, ATCC 29741; settings: agar dilution testing, from CLSI Table 5; cited from earlier work
Peptoniphilus harei = assay: Agar dilution MIC (CLSI), Peptoniphilus harei vaginal isolates; format: cell-based; settings: for MIC: read-out: Minimal Inhibitory Concentration (MIC)
Gardnerella vaginalis = assay: Agar dilution MIC (CLSI), Gardnerella vaginalis vaginal isolates; format: cell-based; settings: for Number of strains with indicated MIC: 100 samples
[2] = number (%) of isolates, # tested 40
[3] = Hoylesella timonensis, # tested 33
[4] = Fannyhessea vaginae, # tested 62
[5] = Peptoniphilus lacrimalis, # tested 20
[6] = Peptoniphilus harei, # tested 23
[7] = Gardnerella vaginalis, # tested 107

For `Cc1ncc([N+](=O)[O-])n1CCO` [Metronidazole], the “activity on Mobiluncus species” value (Mobiluncus all species) was “substantially less active”, the MIC50 (Mobiluncus all species; # tested 40) was 8 µg/mL (≈ 46.7 µM) and the MIC90 (Mobiluncus all species; # tested 40) was > 128 µg/mL. For the same compound, the Intermediate (Mobiluncus all species; [2]) was 1 (3) μg/ml, the Susceptible (Mobiluncus all species; [2]) was 22 (55) μg/ml and the Resistant (Mobiluncus all species; number (%) of isolates, # tested 40, resistance: rifaximin >32, metronidazole >32, clindamycin >8 μg/ml) was 17 (42) μg/ml. It also gave an MIC (Prevotella timonensis; Hoylesella timonensis, isolate 301212 10) of 2 µg/mL (≈ 11.7 µM), an MIC (Prevotella timonensis; Hoylesella timonensis, isolate 601080 5) of 2 µg/mL (≈ 11.7 µM) and an MIC (Prevotella timonensis; Hoylesella timonensis, isolate 601088 15) of 2 µg/mL (≈ 11.7 µM). The MIC (Prevotella timonensis; Hoylesella timonensis, isolate 601093 24) was 2 µg/mL (≈ 11.7 µM), the MIC (Prevotella timonensis; Hoylesella timonensis, isolate 601097 S) was 2 µg/mL (≈ 11.7 µM) and the MIC (Prevotella timonensis; Hoylesella timonensis, isolate 601098 B) was 2 µg/mL (≈ 11.7 µM). For the same compound, the MIC (Prevotella timonensis; Hoylesella timonensis, isolate 601157 19) was 2 µg/mL (≈ 11.7 µM), the MIC (Prevotella timonensis; Hoylesella timonensis, isolate 601167 13) was 2 µg/mL (≈ 11.7 µM) and the MIC (Prevotella timonensis; Hoylesella timonensis, isolate 601170 13) was 2 µg/mL (≈ 11.7 µM). The MIC (Prevotella timonensis; Hoylesella timonensis, isolate 601175 J) was 2 µg/mL (≈ 11.7 µM), the MIC (Prevotella timonensis; Hoylesella timonensis, isolate 601178 19) was 2 µg/mL (≈ 11.7 µM) and the MIC (Prevotella timonensis; Hoylesella timonensis, isolate 601194 9B) was 2 µg/mL (≈ 11.7 µM). The MIC (Prevotella timonensis; Hoylesella timonensis, isolate 601214 A) was 4 µg/mL (≈ 23.4 µM), the MIC (Prevotella timonensis; Hoylesella timonensis, isolate 601226 C) was 2 µg/mL (≈ 11.7 µM) and the MIC (Prevotella timonensis; Hoylesella timonensis, isolate 601234 B) was 2 µg/mL (≈ 11.7 µM). It also gave an MIC (Prevotella timonensis; Hoylesella timonensis, isolate 601252 B) of 4 µg/mL (≈ 23.4 µM), an MIC (Prevotella timonensis; Hoylesella timonensis, isolate 601255 17) of 2 µg/mL (≈ 11.7 µM) and an MIC (Prevotella timonensis; Hoylesella timonensis, isolate 601266 18) of 2 µg/mL (≈ 11.7 µM). For the same compound, the MIC (Prevotella timonensis; Hoylesella timonensis, isolate 601278 12) was > 128 µg/mL, the MIC (Prevotella timonensis; Hoylesella timonensis, isolate 601281 22) was 2 µg/mL (≈ 11.7 µM) and the MIC (Prevotella timonensis; Hoylesella timonensis, isolate 601287 H) was 2 µg/mL (≈ 11.7 µM). The MIC (Prevotella timonensis; Hoylesella timonensis, isolate 601293 13) was 4 µg/mL (≈ 23.4 µM), the MIC (Prevotella timonensis; Hoylesella timonensis, isolate 601367 E) was 4 µg/mL (≈ 23.4 µM) and the MIC (Prevotella timonensis; Hoylesella timonensis, isolate 601370 13) was 4 µg/mL (≈ 23.4 µM). The MIC (Prevotella timonensis; Hoylesella timonensis, isolate 601388 S) was 4 µg/mL (≈ 23.4 µM), the MIC (Prevotella timonensis; Hoylesella timonensis, isolate 601401 J) was 2 µg/mL (≈ 11.7 µM) and the MIC (Prevotella timonensis; Hoylesella timonensis, isolate 601411 S) was 4 µg/mL (≈ 23.4 µM). For the same compound, the MIC (Prevotella timonensis; Hoylesella timonensis, isolate 601414 O) was 4 µg/mL (≈ 23.4 µM), the MIC (Prevotella timonensis; Hoylesella timonensis, isolate 601422 39) was 2 µg/mL (≈ 11.7 µM) and the MIC (Prevotella timonensis; Hoylesella timonensis, isolate 601429 11) was 2 µg/mL (≈ 11.7 µM). For the same compound, the MIC (Prevotella timonensis; Hoylesella timonensis, isolate 601459 21) was 2 µg/mL (≈ 11.7 µM), the MIC50 (Prevotella timonensis; [3]) was 2 µg/mL (≈ 11.7 µM) and the MIC90 (Prevotella timonensis; [3]) was 4 µg/mL (≈ 23.4 µM). The “Number of strains with indicated MIC” value (Prevotella timonensis; MIC >[…], 33 samples) was 1, the Resistant (Prevotella timonensis; number (%) of isolates, # tested 33, resistance: rifaximin >32, metronidazole >32, clindamycin >8 μg/ml) was 1 (3) μg/ml and the “activity against Atopobium vaginae” value (Atopobium vaginae) was “limited activity”. For the same compound, the MIC50 (Atopobium vaginae; [4]) was 128 µg/mL (≈ 748 µM), the MIC90 (Atopobium vaginae; [4]) was > 128 µg/mL and the “Number of strains with indicated MIC” value (Atopobium vaginae; MIC 8 μg/ml) was 2. The “Number of strains with indicated MIC” value (Atopobium vaginae; MIC 16 μg/ml) was 5, the “Number of strains with indicated MIC” value (Atopobium vaginae; MIC 32 μg/ml) was 10 and the “Number of strains with indicated MIC” value (Atopobium vaginae; MIC 64 μg/ml) was 8. For the same compound, the “Number of strains with indicated MIC” value (Atopobium vaginae; MIC >[…]) was 24, the “Number of strains with indicated MIC” value (Atopobium vaginae; MIC […] μg/ml) was 1 and the “Number of strains with indicated MIC” value (Atopobium vaginae; MIC […]) was 12. The “MIC Range” value (Peptoniphilus lacrimalis; # tested 20) was 0.5 to 4 µg/mL, the MIC (Peptoniphilus lacrimalis; Peptoniphilus lacrimalis, isolate 601028V 27A) was 2 µg/mL (≈ 11.7 µM) and the MIC (Peptoniphilus lacrimalis; Peptoniphilus lacrimalis, isolate 601060V 32A) was 2 µg/mL (≈ 11.7 µM). For the same compound, the MIC (Peptoniphilus lacrimalis; Peptoniphilus lacrimalis, isolate 601078V O) was 1 µg/mL (≈ 5.84 µM), the MIC (Peptoniphilus lacrimalis; Peptoniphilus lacrimalis, isolate 601084V c) was 4 µg/mL (≈ 23.4 µM) and the MIC (Peptoniphilus lacrimalis; Peptoniphilus lacrimalis, isolate 601105V 13) was 4 µg/mL (≈ 23.4 µM). The MIC (Peptoniphilus lacrimalis; Peptoniphilus lacrimalis, isolate 601139V 17) was 4 µg/mL (≈ 23.4 µM), the MIC (Peptoniphilus lacrimalis; Peptoniphilus lacrimalis, isolate 601213V 17) was 2 µg/mL (≈ 11.7 µM) and the MIC (Peptoniphilus lacrimalis; Peptoniphilus lacrimalis, isolate 601255V 12) was 1 µg/mL (≈ 5.84 µM). It also gave an MIC (Peptoniphilus lacrimalis; Peptoniphilus lacrimalis, isolate 601261V O) of 1 µg/mL (≈ 5.84 µM), an MIC (Peptoniphilus lacrimalis; Peptoniphilus lacrimalis, isolate 601293V 15) of 1 µg/mL (≈ 5.84 µM) and an MIC (Peptoniphilus lacrimalis; Peptoniphilus lacrimalis, isolate 601296V N) of 1 µg/mL (≈ 5.84 µM). It also gave an MIC (Peptoniphilus lacrimalis; Peptoniphilus lacrimalis, isolate 601305V K-1) of 1 µg/mL (≈ 5.84 µM), an MIC (Peptoniphilus lacrimalis; Peptoniphilus lacrimalis, isolate 601318V E) of 1 µg/mL (≈ 5.84 µM) and an MIC (Peptoniphilus lacrimalis; Peptoniphilus lacrimalis, isolate 601330V H) of 1 µg/mL (≈ 5.84 µM). For the same compound, the MIC (Peptoniphilus lacrimalis; Peptoniphilus lacrimalis, isolate 601336V 47) was 1 µg/mL (≈ 5.84 µM), the MIC (Peptoniphilus lacrimalis; Peptoniphilus lacrimalis, isolate 601365V 13) was 2 µg/mL (≈ 11.7 µM) and the MIC (Peptoniphilus lacrimalis; Peptoniphilus lacrimalis, isolate 601368V 39) was 0.5 µg/mL (≈ 2.92 µM). It also gave an MIC (Peptoniphilus lacrimalis; Peptoniphilus lacrimalis, isolate 601375V E) of 1 µg/mL (≈ 5.84 µM), an MIC (Peptoniphilus lacrimalis; Peptoniphilus lacrimalis, isolate 601388V B) of 1 µg/mL (≈ 5.84 µM) and an MIC (Peptoniphilus lacrimalis; Peptoniphilus lacrimalis, isolate 601401V I) of 1 µg/mL (≈ 5.84 µM). For the same compound, the MIC50 (Peptoniphilus lacrimalis; [5]) was 1 µg/mL (≈ 5.84 µM), the MIC90 (Peptoniphilus lacrimalis; [5]) was 4 µg/mL (≈ 23.4 µM) and the “Acceptable Range of MIC for control strain” value [1] was 0.5 to 2 µg/mL. For the same compound, the “MIC Range” value (Peptoniphilus harei; # tested 23) was 1 to 4 µg/mL, the MIC (Peptoniphilus harei; Peptoniphilus harei, isolate 426868V D) was 2 µg/mL (≈ 11.7 µM) and the MIC (Peptoniphilus harei; Peptoniphilus harei, isolate 601098V Q) was 1 µg/mL (≈ 5.84 µM). It also gave an MIC (Peptoniphilus harei; Peptoniphilus harei, isolate 601203V 8) of 2 µg/mL (≈ 11.7 µM), an MIC (Peptoniphilus harei; Peptoniphilus harei, isolate 601212V 15) of 1 µg/mL (≈ 5.84 µM) and an MIC (Peptoniphilus harei; Peptoniphilus harei, isolate 601233V R) of 4 µg/mL (≈ 23.4 µM). The MIC (Peptoniphilus harei; Peptoniphilus harei, isolate 601248V 23) was 1 µg/mL (≈ 5.84 µM), the MIC (Peptoniphilus harei; Peptoniphilus harei, isolate 601259V 11) was 2 µg/mL (≈ 11.7 µM) and the MIC (Peptoniphilus harei; Peptoniphilus harei, isolate 601289V C) was 2 µg/mL (≈ 11.7 µM). It also gave an MIC (Peptoniphilus harei; Peptoniphilus harei, isolate 601293V 21) of 1 µg/mL (≈ 5.84 µM), an MIC (Peptoniphilus harei; Peptoniphilus harei, isolate 601302V F1) of 2 µg/mL (≈ 11.7 µM) and an MIC (Peptoniphilus harei; Peptoniphilus harei, isolate 601311V R) of 1 µg/mL (≈ 5.84 µM). The MIC (Peptoniphilus harei; Peptoniphilus harei, isolate 601326V F) was 2 µg/mL (≈ 11.7 µM), the MIC (Peptoniphilus harei; Peptoniphilus harei, isolate 601342V F) was 1 µg/mL (≈ 5.84 µM) and the MIC (Peptoniphilus harei; Peptoniphilus harei, isolate 601355V D) was 1 µg/mL (≈ 5.84 µM). For the same compound, the MIC (Peptoniphilus harei; Peptoniphilus harei, isolate 601365V 14) was 1 µg/mL (≈ 5.84 µM), the MIC (Peptoniphilus harei; Peptoniphilus harei, isolate 601374V F) was 2 µg/mL (≈ 11.7 µM) and the MIC (Peptoniphilus harei; Peptoniphilus harei, isolate 601388V Q) was 1 µg/mL (≈ 5.84 µM). The MIC (Peptoniphilus harei; Peptoniphilus harei, isolate 601399V 16) was 1 µg/mL (≈ 5.84 µM), the MIC (Peptoniphilus harei; Peptoniphilus harei, isolate 601409V L) was 1 µg/mL (≈ 5.84 µM) and the MIC (Peptoniphilus harei; Peptoniphilus harei, isolate 601413V 16) was 2 µg/mL (≈ 11.7 µM). For the same compound, the MIC (Peptoniphilus harei; Peptoniphilus harei, isolate 601426V D) was 1 µg/mL (≈ 5.84 µM), the MIC (Peptoniphilus harei; Peptoniphilus harei, isolate 601430V 22) was 1 µg/mL (≈ 5.84 µM) and the MIC (Peptoniphilus harei; Peptoniphilus harei, isolate 601539V 25B) was 2 µg/mL (≈ 11.7 µM). The MIC50 (Peptoniphilus harei; [6]) was 1 µg/mL (≈ 5.84 µM), the MIC90 (Peptoniphilus harei; [6]) was 2 µg/mL (≈ 11.7 µM) and the “activity against G vaginalis” value (Gardnerella vaginalis) was “limited activity”. For the same compound, the MIC50 (Gardnerella vaginalis; [7]) was 64 µg/mL (≈ 374 µM), the MIC90 (Gardnerella vaginalis; [7]) was > 128 µg/mL and the “Number of strains with indicated MIC” value (Gardnerella vaginalis; MIC 8 μg/ml) was 12. For the same compound, the “Number of strains with indicated MIC” value (Gardnerella vaginalis; MIC 16 μg/ml) was 16, the “Number of strains with indicated MIC” value (Gardnerella vaginalis; MIC 32 μg/ml) was 14 and the “Number of strains with indicated MIC” value (Gardnerella vaginalis; MIC 64 μg/ml) was 15. For the same compound, the “Number of strains with indicated MIC” value (Gardnerella vaginalis; MIC >[…]) was 34 and the “Number of strains with indicated MIC” value (Gardnerella vaginalis; MIC […]) was 6.
